“And” between values parts separate entries of the source, which are not always exact repeats. Equal values may be shown once.
Test system: rat model of bone cancer pain (Walker 256 rat mammary gland carcinoma cells injected into the right tibia)
Test: Mechanical allodynia (Von Frey test) in a rat model of bone cancer pain
Assay type: in vivo, Rat (Sprague-Dawley)
Method: The objective of this study was to assess the potential anti-nociceptive and anti-tumourigenic effects of Compound 1, at doses of 15, 30 and 45 mg/kg, in an animal model of bone cancer pain. Metastasis of cancer cells to the bone was modeled by injecting Walker 256 rat mammary gland carcinoma cells into the medullary cavity of the right tibia (Mao-Yinga, et al. A rat model of bone cancer pain induced by intra-tibia inoculation of Walker 256 mammary gland carcinoma cells. Biochem Biophys Res Commun 2006; 345: 1292-1298). The development of mechanical allodynia was monitored using an established behavioural test (Von Frey test). Treatment administration was chronic, from the day of surgery, and administered twice daily for 21 days to determine whether there was a prophylactic effect on the development of mechanical allodynia. Zoledronic acid was used as a reference substance. No regulatory test guidelines were applicable to this study.
Rats have been studied in this model of bone cancer pain. The route of administration of Compound 1 and vehicle was oral. The doses of Compound 1 were 15, 30 and 45 mg/kg, twice a day (approximately 10 h apart) for 21 days.
The dose of zoledronic acid was 30 μg/kg, as a single administration, every second day from the day of surgery, based on historical data. The route of administration of zoledronic acid was subcutaneous.
The dose volume for test substance and vehicle treatments was 5 mL/kg. The vehicle for Compound 1 was corn oil. Each rat allocated to test substance or vehicle treatments received an oral dose, by gavage, twice daily (approximately 8 am and 6 pm) for 21 consecutive days. The dose volume for the reference substance treatment was 1 mL/kg. Each rat allocated to reference substance treatment received a single subcutaneous dose, by injection (approximately 8 am) every second day from the day of surgery.
Cell preparation. Walker 256 rat mammary gland carcinoma cells (obtained from the American Type Culture Collection (ATCC)) were harvested from sub-confluent cultures growing in vitro and the number of viable cells determined. Cells were then re-suspended in sterile phosphate buffered saline (PBS) at a concentration of 4×10^5 cells. Female Sprague-Dawley rats were intratibially injected in the right leg with 4×10^5 Walker 256 rat mammary gland carcinoma cells in a volume of 6 μL as detailed in Surgical procedure below.
Baseline behavioural testing. The rats were moved to the procedure room 5 days prior to behavioural testing. The rats were then housed, dosed and observed in the procedure room. The behavioural test was performed on all rats on 2 separate occasions prior to surgery, to establish baseline values. Pre-surgery baseline values were taken as the data from the final (second) day of testing (the data from the first day of testing was not included but classed as part of the acclimatisation).
Mechanical allodynia (Von Frey test): Each animal was placed in a wire mesh cage and a series of Von Frey filaments were applied to the plantar surface of the hind paw, from below. The filaments were applied in ascending order (starting with the weakest force), and the withdrawal threshold for both the left and right hind paws were evaluated. Each filament was indented on the mid-plantar surface of the foot to the point where it just started to bend; this was repeated approximately 8 to 10 times per filament at a frequency of approximately 1 Hz. The withdrawal threshold was defined as the lowest force of two or more consecutive Von Frey filaments to elicit a reflex withdrawal response (i.e. a brief paw flick).
Surgical procedure. The animals were surgically prepared over 2 days. Each rat was anaesthetised as necessary with isofluorane in […]. The surface around the incision site was shaved and sterilised. Under aseptic conditions, an incision was made in the skin over the top of the right tibia to expose the tibia head with minimal damage. […]

[1] = 15 mg/kg p.o. twice daily, Day 6, left paw
[2] = 15 mg/kg p.o. twice daily, Day 6, right paw
[3] = 15 mg/kg p.o. twice daily, Day 12, left paw
[4] = 15 mg/kg p.o. twice daily, Day 12, right paw
[5] = 15 mg/kg p.o. twice daily, Day 14, left paw
[6] = 15 mg/kg p.o. twice daily, Day 14, right paw
[7] = 15 mg/kg p.o. twice daily, Day 19, left paw
[8] = 15 mg/kg p.o. twice daily, Day 19, right paw
[9] = 15 mg/kg p.o. twice daily, Day 21, left paw
[10] = 15 mg/kg p.o. twice daily, Day 21, right paw
[11] = 15 mg/kg p.o. twice daily, Pre-Surgery, left paw
[12] = 15 mg/kg p.o. twice daily, Pre-Surgery, right paw
[13] = 30 mg/kg p.o. twice daily, Day 6, left paw
[14] = 30 mg/kg p.o. twice daily, Day 6, right paw
[15] = 30 mg/kg p.o. twice daily, Day 12, left paw
[16] = 30 mg/kg p.o. twice daily, Day 12, right paw
[17] = 30 mg/kg p.o. twice daily, Day 14, left paw
[18] = 30 mg/kg p.o. twice daily, Day 14, right paw
[19] = 30 mg/kg p.o. twice daily, Day 19, left paw
[20] = 30 mg/kg p.o. twice daily, Day 19, right paw
[21] = 30 mg/kg p.o. twice daily, Day 21, left paw
[22] = 30 mg/kg p.o. twice daily, Day 21, right paw
[23] = 30 mg/kg p.o. twice daily, Pre-Surgery, left paw
[24] = 30 mg/kg p.o. twice daily, Pre-Surgery, right paw
[25] = 45 mg/kg p.o. twice daily, Day 6, left paw
[26] = 45 mg/kg p.o. twice daily, Day 6, right paw
[27] = 45 mg/kg p.o. twice daily, Day 12, left paw
[28] = 45 mg/kg p.o. twice daily, Day 12, right paw
[29] = 45 mg/kg p.o. twice daily, Day 14, left paw
[30] = 45 mg/kg p.o. twice daily, Day 14, right paw
[31] = 45 mg/kg p.o. twice daily, Day 19, left paw
[32] = 45 mg/kg p.o. twice daily, Day 19, right paw
[33] = 45 mg/kg p.o. twice daily, Day 21, left paw
[34] = 45 mg/kg p.o. twice daily, Day 21, right paw
[35] = 45 mg/kg p.o. twice daily, Pre-Surgery, left paw
[36] = 45 mg/kg p.o. twice daily, Pre-Surgery, right paw

COC1=C(OC)C(O)C(C/C=C(\C)CC/C=C(\C)CCC=C(C)C)C(C)C1=O (stereo not drawn) [Compound 1, 4-hydroxy-2,3-dimethoxy-6-methyl-5-(3,7,11-trimethyldodeca-2,6,10-trienyl)cyclohex-2-enone]
Withdrawal Threshold (Log 10 (force (g) × 10 000)) on Day Post-Operative [1]: 5.33 Log 10 (force (g) × 10 000)
Withdrawal threshold (g) on day post-operative [1]: 21.65 g
Withdrawal Threshold (Log 10 (force (g) × 10 000)) on Day Post-Operative [2]: 5.31 Log 10 (force (g) × 10 000)
Withdrawal threshold (g) on day post-operative [2]: 20.81 g
Withdrawal Threshold (Log 10 (force (g) × 10 000)) on Day Post-Operative [3]: 5.19 Log 10 (force (g) × 10 000)
Withdrawal threshold (g) on day post-operative [3]: 16.27 g
Withdrawal Threshold (Log 10 (force (g) × 10 000)) on Day Post-Operative [4]: 4.99 Log 10 (force (g) × 10 000)
Withdrawal threshold (g) on day post-operative [4]: 11.12 g
Withdrawal Threshold (Log 10 (force (g) × 10 000)) on Day Post-Operative [5]: 5.18 Log 10 (force (g) × 10 000)
Withdrawal threshold (g) on day post-operative [5]: 16.61 g
Withdrawal Threshold (Log 10 (force (g) × 10 000)) on Day Post-Operative [6]: 4.91 Log 10 (force (g) × 10 000)
Withdrawal threshold (g) on day post-operative [6]: 9.97 g
Withdrawal Threshold (Log 10 (force (g) × 10 000)) on Day Post-Operative [7]: 5.08 Log 10 (force (g) × 10 000)
Withdrawal threshold (g) on day post-operative [7]: 13.83 g
Withdrawal Threshold (Log 10 (force (g) × 10 000)) on Day Post-Operative [8]: 4.76 Log 10 (force (g) × 10 000)
Withdrawal threshold (g) on day post-operative [8]: 8.36 g
Withdrawal Threshold (Log 10 (force (g) × 10 000)) on Day Post-Operative [9]: 5.06 Log 10 (force (g) × 10 000)
Withdrawal threshold (g) on day post-operative [9]: 13.74 ± 2.42 g and 13.74 g
Withdrawal Threshold (Log 10 (force (g) × 10 000)) on Day Post-Operative [10]: 4.80 Log 10 (force (g) × 10 000)
Withdrawal threshold (g) on day post-operative [10]: 7.82 ± 1.43 g and 7.82 g
Withdrawal Threshold (Log 10 (force (g) × 10 000)) on Day Post-Operative [11]: 5.33 Log 10 (force (g) × 10 000)
Withdrawal threshold (g) on day post-operative [11]: 21.79 g
Withdrawal Threshold (Log 10 (force (g) × 10 000)) on Day Post-Operative [12]: 5.33 Log 10 (force (g) × 10 000)
Withdrawal threshold (g) on day post-operative [12]: 21.79 g
Withdrawal Threshold (Log 10 (force (g) × 10 000)) on Day Post-Operative [13]: 5.35 Log 10 (force (g) × 10 000)
Withdrawal threshold (g) on day post-operative [13]: 22.55 g
Withdrawal Threshold (Log 10 (force (g) × 10 000)) on Day Post-Operative [14]: 5.32 Log 10 (force (g) × 10 000)
Withdrawal threshold (g) on day post-operative [14]: 21.02 g
Withdrawal Threshold (Log 10 (force (g) × 10 000)) on Day Post-Operative [15]: 5.24 Log 10 (force (g) × 10 000)
Withdrawal threshold (g) on day post-operative [15]: 18.34 g
Withdrawal Threshold (Log 10 (force (g) × 10 000)) on Day Post-Operative [16]: 5.00 Log 10 (force (g) × 10 000)
Withdrawal threshold (g) on day post-operative [16]: 11.15 g
Withdrawal Threshold (Log 10 (force (g) × 10 000)) on Day Post-Operative [17]: 5.16 Log 10 (force (g) × 10 000)
Withdrawal threshold (g) on day post-operative [17]: 15.71 g
Withdrawal Threshold (Log 10 (force (g) × 10 000)) on Day Post-Operative [18]: 4.86 Log 10 (force (g) × 10 000)
Withdrawal threshold (g) on day post-operative [18]: 8.55 g
Withdrawal Threshold (Log 10 (force (g) × 10 000)) on Day Post-Operative [19]: 5.12 Log 10 (force (g) × 10 000)
Withdrawal threshold (g) on day post-operative [19]: 14.04 g
Withdrawal Threshold (Log 10 (force (g) × 10 000)) on Day Post-Operative [20]: 4.91 Log 10 (force (g) × 10 000)
Withdrawal threshold (g) on day post-operative [20]: 9.07 g
Withdrawal Threshold (Log 10 (force (g) × 10 000)) on Day Post-Operative [21]: 5.05 Log 10 (force (g) × 10 000)
Withdrawal threshold (g) on day post-operative [21]: 11.40 ± 0.81 g and 11.40 g
Withdrawal Threshold (Log 10 (force (g) × 10 000)) on Day Post-Operative [22]: 4.82 Log 10 (force (g) × 10 000)
Withdrawal threshold (g) on day post-operative [22]: 8.15 ± 1.43 g and 8.15 g
Withdrawal Threshold (Log 10 (force (g) × 10 000)) on Day Post-Operative [23]: 5.33 Log 10 (force (g) × 10 000)
Withdrawal threshold (g) on day post-operative [23]: 21.79 g
Withdrawal Threshold (Log 10 (force (g) × 10 000)) on Day Post-Operative [24]: 5.33 Log 10 (force (g) × 10 000)
Withdrawal threshold (g) on day post-operative [24]: 21.79 g
Withdrawal Threshold (Log 10 (force (g) × 10 000)) on Day Post-Operative [25]: 5.35 Log 10 (force (g) × 10 000)
Withdrawal threshold (g) on day post-operative [25]: 22.55 g
Withdrawal Threshold (Log 10 (force (g) × 10 000)) on Day Post-Operative [26]: 5.35 Log 10 (force (g) × 10 000)
Withdrawal threshold (g) on day post-operative [26]: 22.55 g
Withdrawal Threshold (Log 10 (force (g) × 10 000)) on Day Post-Operative [27]: 5.31 Log 10 (force (g) × 10 000)
Withdrawal threshold (g) on day post-operative [27]: 20.81 g
Withdrawal Threshold (Log 10 (force (g) × 10 000)) on Day Post-Operative [28]: 5.16 Log 10 (force (g) × 10 000)
Withdrawal threshold (g) on day post-operative [28]: 15.98 g
Withdrawal Threshold (Log 10 (force (g) × 10 000)) on Day Post-Operative [29]: 5.35 Log 10 (force (g) × 10 000)
Withdrawal threshold (g) on day post-operative [29]: 22.48 g
Withdrawal Threshold (Log 10 (force (g) × 10 000)) on Day Post-Operative [30]: 5.30 Log 10 (force (g) × 10 000)
Withdrawal threshold (g) on day post-operative [30]: 20.41 g
Withdrawal Threshold (Log 10 (force (g) × 10 000)) on Day Post-Operative [31]: 5.29 Log 10 (force (g) × 10 000)
Withdrawal threshold (g) on day post-operative [31]: 20.12 g
Withdrawal Threshold (Log 10 (force (g) × 10 000)) on Day Post-Operative [32]: 5.24 Log 10 (force (g) × 10 000)
Withdrawal threshold (g) on day post-operative [32]: 18.58 g
Withdrawal Threshold (Log 10 (force (g) × 10 000)) on Day Post-Operative [33]: 5.29 Log 10 (force (g) × 10 000)
Withdrawal threshold (g) on day post-operative [33]: 20.12 ± 1.67 g and 20.12 g
Withdrawal Threshold (Log 10 (force (g) × 10 000)) on Day Post-Operative [34]: 5.25 Log 10 (force (g) × 10 000)
Withdrawal threshold (g) on day post-operative [34]: 19.06 ± 2.17 g and 19.06 g
Withdrawal Threshold (Log 10 (force (g) × 10 000)) on Day Post-Operative [35]: 5.33 Log 10 (force (g) × 10 000)
Withdrawal threshold (g) on day post-operative [35]: 21.79 g
Withdrawal Threshold (Log 10 (force (g) × 10 000)) on Day Post-Operative [36]: 5.33 Log 10 (force (g) × 10 000)
Withdrawal threshold (g) on day post-operative [36]: 21.79 g
